Among the data in patent US20250002840A1, “MANUFACTURING METHOD OF MIXED POWDER, MIXED POWDER, POWDER, AND POWDER MEDIUM” (FUJIFILM Corporation, priority 2022, published 2025) are Liquid property and Overall evaluation values, retold here.

The nature of data set [1]: Liquid property (pH) of the solution obtained in the solubility evaluation. The data set is classed as physicochemical. The procedure: A pH of the solution obtained in the evaluation of solubility was evaluated. Liquid property was evaluated according to the following evaluation standard.
The nature of data set [2]: Overall evaluation based on solubility and liquid property. The data set is classed as physicochemical. Particulars: based on the evaluation results of solubility and liquid property.

For `N[C@@H](CSSC[C@H](N)C(=O)O)C(=O)O` [Comparative Example 1, L-cystine], the Liquid property result in data set [1] is recorded as “Neutral (pH of 6.0 to 8.5)”. Also, the Overall evaluation entry in data set [2] is listed as “E (the solution was still turbid even after 1 hour, and/or the pH was other than neutral)”.
